Key:
[1] = Stability at 40° C./75% RH, prodrug assayed for degradation to ethinyl estradiol (HPLC); assay type: physicochemical; settings: prodrug remaining; for Assay T = 2 W: 2 weeks; for Assay T = 0: T = 0 months; for Assay T = 1 M: 1 month; for Assay T = 6 M: 6 months
Procedure: Solubility was performed in water. […] The time-points for stability were T=0 months, T=2 weeks, T=1 month, T=3 months and T=6 months.
The following outlines the conditions utilized for analysis of this prodrug. Analysis was conducted using High-Performance Liquid Chromatography (HPLC).
The following outlines the conditions utilized for analysis of this prodrug. Analysis was conducted using HPLC.
The following outlines the conditions utilized for analysis of the prodrug. Analysis was conducted using HPLC.

[2] = Hydrolysis to the parent drug ethinyl estradiol (0.5N NaOH, HPLC quantification); assay type: physicochemical; settings: 5 min, prodrug solution + water + 0.5N NaOH
Procedure: Hydrolysis studies refer to the rate of hydrolysis to the parent drug, ethinyl estradiol. Hydrolysis was conducted in the following manner: • (1) 1 mL of a solution containing the prodrug, 2.8 mL of water and 0.1 mL of 0.5N NaOH were combined; • (2) the resulting solution was vortexed for 10 seconds; • (3) the mixture was then left to stand for specific time intervals (e.g., 5 minutes, 15 minutes, etc.); • (4) the mixture was then neutralized with 0.1 mL of a buffer; and • (5) the solutions were finally injected to quantify the disappearance of the prodrug and the formation of the parent compound.

[3] = listed as ethinyl estradiol acetoxy acetate
[4] = listed as ethinyl estradiol lactate acetate

Compound | Assay T = 2 W [1] [%] | Assay T = 0 [1] [%] | Assay T = 1 M [1] [%] | Assay T = 1 M [1, 3] [%] | Hydrolysis (to ethinyl estradiol) [2] | Hydrolysis (to ethinyl estradiol) [2, 3] [%] | Assay T = 3 M ([1]; 3 months) [%] | Assay T = 6 M [1] [%] | Assay T = 6 M [1, 4] [%] | Hydrolysis (to ethinyl estradiol) [2, 4] [%]
C#CC1(O)CC[C@H]2[C@@H]3CCc4cc(OC(=O)[C@@H]5CCCN5C(C)=O)ccc4[C@H]3CC[C@@]21C (stereo partly drawn) [Ethinyl Estradiol N-Acetyl Prolinate, ethinyl estradiol N-acetyl proline] | 96.6 | 97.2 | – | – | – | – | – | – | – | –
ethinyl estradiol acetoxy acetate | 97.2 | 97.8 | 97.0 | 97 | 100% (5 min) | 100 | – | – | – | –
ethinyl estradiol lactate-acetate | – | 94.43 | 93.67 | – | 100% (5 min) | – | 95.91 | 95.89 | 95.9 | 100

Source: patent US7795241B2, “Derivative prodrugs of ethinyl estradiol” (Warner Chilcott Company, LLC, priority 2005, dated 2010)
